Patent publication US20260138959A1, “QUINAZOLINE DERIVATIVE COMPOUND AND USE THEREOF” (VORONOI INC., priority 2021, published 2026)

Experiments:
human PDGFR-β(wt) = molecular target: T1, human PDGFR-β(wt) (Homo sapiens, UniProt P09619); test: Enzyme inhibitory activity, ADP-Glo kinase assay, PDGFR-β(wt); assay type: biochemical; settings: read-out: PDGFR-β (IC50 class)
T1 construct: purchased Signalchem P13-11G
Method in brief: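 Purified human kinases incubated with ATP and substrate 1–2 h at 25 °C in 40 mM Tris-HCl pH 7.4, 20 mM MgCl2, BSA, DTT, compound over 12 concentrations (10–0.00005645 μM final). ADP formed quantified by ADP-Glo luminescence; IC50 from inhibition versus DMSO control, reported in bins A–D.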

human PDGFR-α(wt) = molecular target: T2, human PDGFR-α(wt) (Homo sapiens, UniProt P16234); test: Enzyme inhibitory activity, ADP-Glo kinase assay, PDGFR-α(wt); assay type: biochemical; settings: read-out: PDGFR-α (IC50 class)
T2 construct: purchased Signalchem P12-18G
T2 sequence (P16234 24-1089): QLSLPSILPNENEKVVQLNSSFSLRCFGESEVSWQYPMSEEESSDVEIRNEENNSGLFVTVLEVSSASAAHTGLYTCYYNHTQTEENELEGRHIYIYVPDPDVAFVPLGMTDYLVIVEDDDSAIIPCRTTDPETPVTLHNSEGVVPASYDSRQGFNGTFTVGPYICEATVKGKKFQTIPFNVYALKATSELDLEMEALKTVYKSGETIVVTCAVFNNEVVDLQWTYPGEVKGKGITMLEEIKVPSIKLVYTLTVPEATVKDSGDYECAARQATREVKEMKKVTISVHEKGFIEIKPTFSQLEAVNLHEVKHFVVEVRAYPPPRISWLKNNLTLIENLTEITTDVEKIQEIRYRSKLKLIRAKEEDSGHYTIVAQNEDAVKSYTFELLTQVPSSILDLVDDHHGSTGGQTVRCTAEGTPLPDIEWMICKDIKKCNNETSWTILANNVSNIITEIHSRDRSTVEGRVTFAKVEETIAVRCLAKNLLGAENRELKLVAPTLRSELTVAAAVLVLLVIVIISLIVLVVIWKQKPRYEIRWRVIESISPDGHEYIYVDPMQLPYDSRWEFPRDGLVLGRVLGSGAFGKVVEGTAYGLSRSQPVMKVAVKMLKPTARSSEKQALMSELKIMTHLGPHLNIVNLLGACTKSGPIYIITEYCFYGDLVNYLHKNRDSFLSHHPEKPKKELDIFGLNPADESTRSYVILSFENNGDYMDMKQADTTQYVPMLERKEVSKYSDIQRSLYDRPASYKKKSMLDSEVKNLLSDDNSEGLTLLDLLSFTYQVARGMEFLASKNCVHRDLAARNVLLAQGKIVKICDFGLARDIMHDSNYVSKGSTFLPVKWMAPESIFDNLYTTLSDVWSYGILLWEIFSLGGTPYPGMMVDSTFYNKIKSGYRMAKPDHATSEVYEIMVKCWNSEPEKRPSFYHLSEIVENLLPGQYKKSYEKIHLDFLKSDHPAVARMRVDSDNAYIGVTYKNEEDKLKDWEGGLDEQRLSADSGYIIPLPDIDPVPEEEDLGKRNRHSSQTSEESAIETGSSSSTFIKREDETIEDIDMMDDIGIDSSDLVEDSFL
Protocol: (§1) In order to evaluate the inhibitory activity of the compounds synthesized according to the above examples on PDGFR-α(wt), PDGFR-β(wt), c-KIT(wt), and c-KIT(D816V) kinases, the following method was performed. The compounds of examples were reacted with purified human PDGFR-α(wt) (Signalchem #P12-18G) enzyme, human PDGFR-β(wt) (Signalchem #P13-11G) enzyme, human c-KIT(wt) (Signalchem #K06-11BG) enzyme, human c-KIT(D816V) (Signalchem #C06-12LG) enzyme, and the enzyme inhibitory abilities were evaluated by the following method.
(§2) The reaction buffer was used as a composition of 40 mM Tris-HCl pH7.4, 20 mM MgCl2, 0.5 mg/ml BSA, 50 μM DTT, and the reactions of all the tests were carried out on the reaction buffer. The compound was diluted in 12 steps using a serial dilution method from a 10 mM DMSO stock, and the enzyme activity was measured at a final compound concentration of 10˜0.00005645 μM. During the test, the enzyme activity was confirmed using in vitro ADP-Glo™ kinase assay (Promega) after reacting with the proper concentration of human PDGFR-α(wt) enzyme, human PDGFR-β(wt), human c-KIT(wt) enzyme, and human c-KIT(D816V) enzyme with purified ATP and enzyme substrate at 25° C. for 1˜2 hours. At a ratio of 2:2:1, an enzyme-active reaction solution, an ADP-Glo reaction solution, and an enzyme-active detection solution were reacted to measure the inhibition of the enzyme's activity with luminoscence. Based on the […] of the enzyme activity of the solvent control that was not treated with the compound, the degree of enzyme activity inhibition was calculated according to the treatment concentration of each compound, and the concentration of each compound that inhibits 50% of enzyme activity was determined as IC50 (nM) value and the value was obtained by using GraphPad Prism 8.3.0 (GraphPad software Inc., San Diego) software. (A: IC50≤50 nM; B: 50 nM<IC50≤100 nM; C: 100 nM<IC50≤500 nM; D: IC50>500 nM).

c-KIT D816V = c-KIT D816V (Homo sapiens, UniProt P10721, D816V); test: Enzyme inhibitory activity, ADP-Glo kinase assay, c-KIT(D816V); assay type: biochemical; design: purchased Signalchem C06-12LG; settings: read-out: c-KIT (D816V) (IC50 class)
c-KIT D816V, sequence (P10721 26-976 D816V): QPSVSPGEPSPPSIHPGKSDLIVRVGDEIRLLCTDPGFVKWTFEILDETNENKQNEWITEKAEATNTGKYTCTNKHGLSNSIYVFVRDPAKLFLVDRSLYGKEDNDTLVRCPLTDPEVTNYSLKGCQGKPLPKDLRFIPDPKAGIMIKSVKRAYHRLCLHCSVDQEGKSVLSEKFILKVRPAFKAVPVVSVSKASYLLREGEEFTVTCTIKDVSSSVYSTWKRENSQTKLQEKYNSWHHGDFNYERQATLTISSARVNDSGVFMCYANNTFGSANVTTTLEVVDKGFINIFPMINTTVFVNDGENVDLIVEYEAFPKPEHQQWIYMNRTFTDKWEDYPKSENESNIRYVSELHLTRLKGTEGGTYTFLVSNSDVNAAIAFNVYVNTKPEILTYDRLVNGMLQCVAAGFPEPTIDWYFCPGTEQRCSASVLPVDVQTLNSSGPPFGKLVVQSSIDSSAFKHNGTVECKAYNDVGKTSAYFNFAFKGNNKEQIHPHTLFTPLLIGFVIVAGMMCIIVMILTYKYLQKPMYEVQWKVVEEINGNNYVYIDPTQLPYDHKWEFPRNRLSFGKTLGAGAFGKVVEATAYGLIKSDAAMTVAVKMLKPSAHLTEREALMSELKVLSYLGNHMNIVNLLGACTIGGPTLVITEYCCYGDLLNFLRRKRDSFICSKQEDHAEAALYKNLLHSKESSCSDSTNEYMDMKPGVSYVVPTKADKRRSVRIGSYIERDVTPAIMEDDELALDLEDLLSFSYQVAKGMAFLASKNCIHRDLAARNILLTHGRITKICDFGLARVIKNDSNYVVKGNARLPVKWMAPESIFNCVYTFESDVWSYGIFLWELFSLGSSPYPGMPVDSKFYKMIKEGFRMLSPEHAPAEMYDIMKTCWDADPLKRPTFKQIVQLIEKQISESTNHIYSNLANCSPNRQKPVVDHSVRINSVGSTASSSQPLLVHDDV
Protocol: as §1, §2

Ba/F3-TEL-PDGFβ(WT) = test: Proliferation inhibitory activity on Ba/F3 cell (CellTiter-Glo, 72 hours), PDGFR-β; assay type: cell-based; settings: Mus musculus, BaF3, read-out: Ba/F3 (nM) Tel-PDGFRβ (GI50 class)
Method in brief: (§3)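 In this assay, Ba/F3 transfectants are treated for 72 h at 37 °C with serially diluted compound (final 0.00005-10 μM), and viable cells are quantified by CellTiter-Glo. Results are expressed relative to vehicle to give GI50 in nM.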

c-KIT V560G/D816V = test: Proliferation inhibitory activity on Ba/F3 cell (CellTiter-Glo, 72 hours), c-KIT V560G/D816V; assay type: cell-based; settings: Mus musculus, BaF3, c-KIT V560G/D816V cells, read-out: Cell (nM) c-KIT V560G/D816V (GI50 class)
Method in brief: as §3

Ba/F3-TEL-PDGFRα(WT) = test: Proliferation inhibitory activity on Ba/F3 cell (CellTiter-Glo, 72 hours), PDGFR-α; assay type: cell-based; settings: Mus musculus, BaF3, read-out: Ba/F3 (nM) Tel-PDGFRα (GI50 class)
Protocol: (§4) Ba/F3-TEL-PDGFRα(WT), Ba/F3-TEL-PDGFβ(WT), Ba/F3-c-KIT(D816V) (Kyinno, #KC-0138), c-KIT V560G/D816V, c-KIT D814Y were seeded at 3×10^3/100 μl/well in a clear bottom white 96-well plate. A culture solution containing compounds of 12 concentrations (0.00001-2 mM) serially diluted in 3 folds and the DMSO control group was added at 0.5 μl/well each to a final concentration of 0.00005-10 μM, and then incubated in a CO2 incubator at 37° C. for 72 hours. After 72 hours, the plate treated with the compound was taken out, CellTiter-Glo® Assay (Promega) solution was treated with 100 μl/well, followed by mixing well. After mixing well for about 10 minutes at room temperature, […] was measured using a microplate reader. The data were presented as percentages in proportion to treated cells based on the vehicle, GI50 (nM) values were calculated using GraphPad Prism 8.3.0 (GraphPad software Inc., San Diego).
(§5) The inhibitory activities of Ba/F3 expressing PDGFR-α, PDGFR-β, c-KIT(D816V), c-KIT V560G/D816V, and c-KIT D814Y measured as described above were measured and shown in Table 7 below (A: GI50≤200 nM; B: 200 nM<GI50≤500 nM; C: GI50>500 nM).

Ba/F3-c-KIT(D816V) = test: Proliferation inhibitory activity on Ba/F3 cell (CellTiter-Glo, 72 hours), c-KIT(D816V); assay type: cell-based; settings: Mus musculus, BaF3, read-out: Ba/F3 (nM) c-KIT (D816V) (GI50 class)
Method in brief: as §3

human c-KIT(wt) = molecular target: T3, human c-KIT(wt) (Homo sapiens, UniProt P10721); test: Enzyme inhibitory activity, ADP-Glo kinase assay, c-KIT(wt); assay type: biochemical; settings: read-out: c-KIT (WT) (IC50 class)
T3 construct: purchased Signalchem K06-11BG
T3 sequence (P10721 26-976): as the sequence (P10721 26-976 D816V) above, with V791D counted along it
Protocol: as §1, §2

c-KIT D814Y = test: Proliferation inhibitory activity on Ba/F3 cell (CellTiter-Glo, 72 hours), c-KIT D814Y; assay type: cell-based; settings: Mus musculus, BaF3, c-KIT D814Y cells, read-out: Cell (nM) c-KIT D814Y (GI50 class)
Protocol: as §4, §5

various kinases = test: Inhibitory activity against various kinases, DiscoverX scanMAX Kinase panel, % control at 1 μM; assay type: binding
Protocol: The activities of the compounds according to the present disclosure on various enzymes were evaluated. Specifically, it was commissioned DiscoverX to measure enzyme selectivity for the compounds of Examples 3, 9, and 83 above, and the experiment was conducted using a panel for scanMAX™ Kinase analysis. Herein, a solution prepared by dissolving in DMSO at a concentration of 1 μM was used as the drug treated with the enzyme, and the control percentage (% control) was determined by the method of Equation 1 below, and the results are shown in Table 8 below.
Herein, when the calculated percentage value for each enzyme was less than 35%, it was determined to have inhibitory activity for the enzyme. Accordingly, among the series of enzymes tested, the enzymes showing the inhibitory activities of the compounds of the present disclosure are summarized and shown in Table 8 below along with the control percentages thereof. (©): less than 10%; ◯: 10% or more to less than 35%).

T1 sequence (P09619 33-1106): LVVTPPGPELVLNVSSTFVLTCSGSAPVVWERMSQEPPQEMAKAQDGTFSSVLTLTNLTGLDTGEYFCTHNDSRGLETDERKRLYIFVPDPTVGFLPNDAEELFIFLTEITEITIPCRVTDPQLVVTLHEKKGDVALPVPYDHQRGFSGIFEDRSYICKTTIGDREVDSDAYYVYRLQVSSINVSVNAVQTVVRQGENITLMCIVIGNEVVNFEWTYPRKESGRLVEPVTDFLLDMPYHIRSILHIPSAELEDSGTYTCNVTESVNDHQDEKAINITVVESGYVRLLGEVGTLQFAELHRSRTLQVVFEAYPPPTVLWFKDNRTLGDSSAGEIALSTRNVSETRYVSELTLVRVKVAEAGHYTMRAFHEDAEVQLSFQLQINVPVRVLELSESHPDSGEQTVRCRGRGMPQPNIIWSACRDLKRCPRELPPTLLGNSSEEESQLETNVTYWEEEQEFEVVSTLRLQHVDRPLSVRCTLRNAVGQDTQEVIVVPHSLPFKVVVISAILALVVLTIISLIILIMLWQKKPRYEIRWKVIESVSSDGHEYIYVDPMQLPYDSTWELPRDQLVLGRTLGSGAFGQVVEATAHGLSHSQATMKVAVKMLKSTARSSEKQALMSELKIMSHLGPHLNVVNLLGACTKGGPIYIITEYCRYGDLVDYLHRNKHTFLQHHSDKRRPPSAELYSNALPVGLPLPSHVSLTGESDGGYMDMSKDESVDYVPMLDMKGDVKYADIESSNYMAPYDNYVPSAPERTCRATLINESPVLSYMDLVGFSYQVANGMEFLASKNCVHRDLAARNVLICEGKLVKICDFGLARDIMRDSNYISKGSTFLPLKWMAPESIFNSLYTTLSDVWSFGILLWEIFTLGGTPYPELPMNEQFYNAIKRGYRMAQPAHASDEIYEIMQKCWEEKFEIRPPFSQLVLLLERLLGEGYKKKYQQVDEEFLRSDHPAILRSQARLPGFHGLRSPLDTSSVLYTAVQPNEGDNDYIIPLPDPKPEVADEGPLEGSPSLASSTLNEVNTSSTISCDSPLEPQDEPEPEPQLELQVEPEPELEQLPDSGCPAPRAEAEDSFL

IC50 (human PDGFR-β(wt)) | IC50 (human PDGFR-α(wt)) | IC50 (c-KIT D816V) | GI50 (Ba/F3-TEL-PDGFβ(WT)) | GI50 (c-KIT V560G/D816V) | GI50 (Ba/F3-TEL-PDGFRα(WT)) | GI50 (Ba/F3-c-KIT(D816V)) | IC50 (human c-KIT(wt)) | GI50 (c-KIT D814Y) | control percentage (% control), KIT (various kinases; KIT) | control percentage (% control), KIT (A829P) (various kinases; KIT (A829P)) | control percentage (% control), KIT (D816H) (various kinases; KIT (D816H)) | control percentage (% control), KIT (D816V) (various kinases; KIT (D816V)) | control percentage (% control), KIT (L576P) (various kinases; KIT (L576P)) | control percentage (% control), KIT (V559D) (various kinases; KIT (V559D)) | control percentage (% control), KIT (V559D, T670I) (various kinases; KIT (V559D, T670I)) | control percentage (% control), KIT (V559D, V654A) (various kinases; KIT (V559D, V654A)) | control percentage (% control), KIT-autoinhibited (various kinases; KIT-autoinhibited) | control percentage (% control), PDGFRA (various kinases; PDGFRA) | control percentage (% control), PDGFRB (various kinases; PDGFRB) | Structure (SMILES)
≤ 50 nM | ≤ 50 nM | ≤ 50 nM | ≤ 200 nM | ≤ 200 nM | ≤ 200 nM | ≤ 200 nM | ≤ 50 nM | – | – | – | – | – | – | – | – | – | – | – | – | CCN(CC)CCOc1cc2ncnc(-c3ccc(NC(=O)Cc4ccc(C(F)(F)F)cc4)cc3)c2cc1OC [Example 1, N-(4-(7-(2-(diethylamino)ethoxy)-6-methoxyquinazolin-4-yl)phenyl)-2-(4-(trifluoromethyl)phenyl)acetamide]
≤ 50 nM | ≤ 50 nM | ≤ 50 nM | ≤ 200 nM | 200 to 500 nM | ≤ 200 nM | ≤ 200 nM | ≤ 50 nM | – | – | – | – | – | – | – | – | – | – | – | – | COc1cc2c(-c3ccc(NC(=O)Cc4ccc(C(F)(F)F)cc4)cc3)ncnc2cc1OC1CCN(C)CC1 [Example 2, N-(4-(6-methoxy-7-((1-methylpiperidin-4-yl)oxy)quinazolin-4-yl)phenyl)-2-(4-(trifluoromethyl)phenyl)acetamide]
≤ 50 nM | ≤ 50 nM | ≤ 50 nM | ≤ 200 nM | ≤ 200 nM | ≤ 200 nM | ≤ 200 nM | ≤ 50 nM | ≤ 200 nM | ⊚ | ⊚ | ⊚ | ⊚ | ⊚ | ⊚ | ◯ (◯: 10% or more to less than 35%) | ⊚ | ◯ (◯: 10% or more to less than 35%) | ⊚ | ⊚ | COc1cc2c(-c3ccc(NC(=O)Cc4ccc(C(F)(F)F)cc4)cc3)ncnc2cc1OCCN1CCN(C)CC1 [Example 3, N-(4-(6-methoxy-7-(2-(4-methylpiperazin-1-yl)ethoxy)quinazolin-4-yl)phenyl)-2-(4-(trifluoromethyl)phenyl)acetamide]
≤ 50 nM | – | – | ≤ 200 nM | ≤ 200 nM | – | ≤ 200 nM | – | ≤ 200 nM | – | – | – | – | – | – | – | – | – | – | – | CCN1CCC(COc2cc3ncnc(-c4ccc(NC(=O)Cc5ccc(C(F)(F)F)cc5)cc4)c3cc2OC)CC1 [Example 4, N-(4-(7-((1-ethylpiperidin-4-yl)methoxy)-6-methoxyquinazolin-4-yl)phenyl)-2-(4-(trifluoromethyl)phenyl)acetamide]
≤ 50 nM | ≤ 50 nM | ≤ 50 nM | ≤ 200 nM | ≤ 200 nM | ≤ 200 nM | ≤ 200 nM | ≤ 50 nM | ≤ 200 nM | – | – | – | – | – | – | – | – | – | – | – | CCN(CC)CCCOc1cc2ncnc(-c3ccc(NC(=O)Cc4ccc(C(F)(F)F)cc4)cc3)c2cc1OC [Example 11, N-(4-(7-(3-(diethylamino)propoxy)-6-methoxyquinazolin-4-yl)phenyl)-2-(4-(trifluoromethyl)phenyl)acetamide]
